Counter-ions that a name gives are not always drawn.

Assay [1] deals with T1, hNav1.7 (Homo sapiens (Human), UniProt Q15858). Kind of assay: Electrophysiological assay (EP), voltage clamp on Syncropatch 384PE, CHO cells stably expressing Nav1.7. The format is cell-based. Conditions: holding potential −50 mV, 7.5 min compound incubation, read-out: EP_SP hNav1.7 EVO IC50. The essentials: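 Whole-cell automated patch clamp was run on CHO cells stably expressing human Nav1.7 cDNA, with internal solution CsCl/EGTA pH 7.2, external solution 80 mM NaCl pH 7.4, and 0.1% Pluronic F-127. From a −50 mV holding potential: −10 mV for 10 ms, −150 mV for 20 ms, then −10 mV for 10 ms, where current was measured. Inhibition was taken after 7.5 min compound incubation, with TTX added for full block.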
In general terms: The patch-clamp technique gives a direct electrical read-out from membranes.
Target sequence in this assay (Q15858 other isoform, or with tags, fused parts or gaps): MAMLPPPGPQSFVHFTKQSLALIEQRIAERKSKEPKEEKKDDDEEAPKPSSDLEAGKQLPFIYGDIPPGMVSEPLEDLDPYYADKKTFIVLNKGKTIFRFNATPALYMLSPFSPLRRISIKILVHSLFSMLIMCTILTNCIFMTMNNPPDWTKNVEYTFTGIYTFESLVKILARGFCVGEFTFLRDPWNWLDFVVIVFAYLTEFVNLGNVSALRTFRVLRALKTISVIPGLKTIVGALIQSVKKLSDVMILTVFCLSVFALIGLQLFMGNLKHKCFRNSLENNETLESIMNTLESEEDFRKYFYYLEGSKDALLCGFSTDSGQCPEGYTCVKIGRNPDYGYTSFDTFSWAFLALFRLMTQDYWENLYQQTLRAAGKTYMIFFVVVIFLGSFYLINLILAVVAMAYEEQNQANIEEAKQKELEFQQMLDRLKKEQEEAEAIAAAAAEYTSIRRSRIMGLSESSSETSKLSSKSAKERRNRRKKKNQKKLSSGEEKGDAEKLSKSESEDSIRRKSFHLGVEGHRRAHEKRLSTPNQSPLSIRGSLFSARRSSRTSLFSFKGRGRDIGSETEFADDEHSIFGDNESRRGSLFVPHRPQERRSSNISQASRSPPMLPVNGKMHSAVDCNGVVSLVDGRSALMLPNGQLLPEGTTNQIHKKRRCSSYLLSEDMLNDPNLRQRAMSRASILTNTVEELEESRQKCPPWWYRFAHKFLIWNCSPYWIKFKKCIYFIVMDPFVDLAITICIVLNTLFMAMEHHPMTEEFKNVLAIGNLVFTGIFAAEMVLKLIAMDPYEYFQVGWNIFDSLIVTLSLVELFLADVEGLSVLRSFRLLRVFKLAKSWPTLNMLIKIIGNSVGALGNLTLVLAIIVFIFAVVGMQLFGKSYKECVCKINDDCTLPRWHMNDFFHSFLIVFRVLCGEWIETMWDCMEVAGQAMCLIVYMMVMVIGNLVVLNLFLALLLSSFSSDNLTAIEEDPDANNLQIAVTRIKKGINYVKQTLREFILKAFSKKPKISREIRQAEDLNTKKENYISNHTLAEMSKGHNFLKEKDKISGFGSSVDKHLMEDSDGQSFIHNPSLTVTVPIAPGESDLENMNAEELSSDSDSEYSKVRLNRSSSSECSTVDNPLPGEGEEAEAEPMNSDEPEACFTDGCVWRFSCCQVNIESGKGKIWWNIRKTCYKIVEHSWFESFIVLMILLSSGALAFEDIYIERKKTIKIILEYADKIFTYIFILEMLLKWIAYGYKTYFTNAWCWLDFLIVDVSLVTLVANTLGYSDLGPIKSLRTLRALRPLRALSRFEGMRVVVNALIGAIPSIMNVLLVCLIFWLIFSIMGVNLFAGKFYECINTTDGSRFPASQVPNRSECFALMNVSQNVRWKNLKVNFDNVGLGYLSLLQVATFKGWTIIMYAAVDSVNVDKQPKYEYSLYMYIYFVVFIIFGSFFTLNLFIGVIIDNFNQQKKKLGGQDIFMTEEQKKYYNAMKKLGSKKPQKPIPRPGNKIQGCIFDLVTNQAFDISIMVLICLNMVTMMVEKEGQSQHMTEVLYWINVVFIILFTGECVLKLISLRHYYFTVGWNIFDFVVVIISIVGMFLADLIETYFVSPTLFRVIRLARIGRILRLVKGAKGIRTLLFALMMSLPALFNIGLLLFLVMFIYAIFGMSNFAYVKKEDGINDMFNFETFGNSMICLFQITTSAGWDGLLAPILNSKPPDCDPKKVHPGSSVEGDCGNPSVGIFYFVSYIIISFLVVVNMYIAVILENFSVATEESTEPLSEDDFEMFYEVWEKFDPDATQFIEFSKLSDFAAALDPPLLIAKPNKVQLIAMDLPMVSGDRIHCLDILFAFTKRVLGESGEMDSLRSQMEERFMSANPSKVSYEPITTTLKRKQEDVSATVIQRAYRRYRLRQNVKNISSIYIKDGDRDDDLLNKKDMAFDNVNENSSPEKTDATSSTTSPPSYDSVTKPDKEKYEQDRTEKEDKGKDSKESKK

The target in assay [2] is T1, hNav1.7. Kind of assay: Tritiated compound binding to membranes from cells heterologously expressing hNav1.7 and the β1 subunit (Nav1.7 LBA). Conditions: competitive binding vs [3H]compound, membranes with hNav1.7 and β1 subunit; read-out: Nav1.7 LBA EVO IC50. The essentials:
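Membranes from cells expressing hNav1.7 with β1 were incubated at room temperature with a tritiated competitive Nav1.7 inhibitor plus test compound in 100 mM NaCl, 20 mM Tris pH 7.4, 0.01% BSA; nonspecific binding was set with 1 μM unlabeled compound. Incubation was 18 h with […] radioligand, or 3 h with […]. Bound ligand was filtered and counted, and IC50 came from a 4-parameter fit.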
Target sequence in this assay (Q15858 whole entry, looked up): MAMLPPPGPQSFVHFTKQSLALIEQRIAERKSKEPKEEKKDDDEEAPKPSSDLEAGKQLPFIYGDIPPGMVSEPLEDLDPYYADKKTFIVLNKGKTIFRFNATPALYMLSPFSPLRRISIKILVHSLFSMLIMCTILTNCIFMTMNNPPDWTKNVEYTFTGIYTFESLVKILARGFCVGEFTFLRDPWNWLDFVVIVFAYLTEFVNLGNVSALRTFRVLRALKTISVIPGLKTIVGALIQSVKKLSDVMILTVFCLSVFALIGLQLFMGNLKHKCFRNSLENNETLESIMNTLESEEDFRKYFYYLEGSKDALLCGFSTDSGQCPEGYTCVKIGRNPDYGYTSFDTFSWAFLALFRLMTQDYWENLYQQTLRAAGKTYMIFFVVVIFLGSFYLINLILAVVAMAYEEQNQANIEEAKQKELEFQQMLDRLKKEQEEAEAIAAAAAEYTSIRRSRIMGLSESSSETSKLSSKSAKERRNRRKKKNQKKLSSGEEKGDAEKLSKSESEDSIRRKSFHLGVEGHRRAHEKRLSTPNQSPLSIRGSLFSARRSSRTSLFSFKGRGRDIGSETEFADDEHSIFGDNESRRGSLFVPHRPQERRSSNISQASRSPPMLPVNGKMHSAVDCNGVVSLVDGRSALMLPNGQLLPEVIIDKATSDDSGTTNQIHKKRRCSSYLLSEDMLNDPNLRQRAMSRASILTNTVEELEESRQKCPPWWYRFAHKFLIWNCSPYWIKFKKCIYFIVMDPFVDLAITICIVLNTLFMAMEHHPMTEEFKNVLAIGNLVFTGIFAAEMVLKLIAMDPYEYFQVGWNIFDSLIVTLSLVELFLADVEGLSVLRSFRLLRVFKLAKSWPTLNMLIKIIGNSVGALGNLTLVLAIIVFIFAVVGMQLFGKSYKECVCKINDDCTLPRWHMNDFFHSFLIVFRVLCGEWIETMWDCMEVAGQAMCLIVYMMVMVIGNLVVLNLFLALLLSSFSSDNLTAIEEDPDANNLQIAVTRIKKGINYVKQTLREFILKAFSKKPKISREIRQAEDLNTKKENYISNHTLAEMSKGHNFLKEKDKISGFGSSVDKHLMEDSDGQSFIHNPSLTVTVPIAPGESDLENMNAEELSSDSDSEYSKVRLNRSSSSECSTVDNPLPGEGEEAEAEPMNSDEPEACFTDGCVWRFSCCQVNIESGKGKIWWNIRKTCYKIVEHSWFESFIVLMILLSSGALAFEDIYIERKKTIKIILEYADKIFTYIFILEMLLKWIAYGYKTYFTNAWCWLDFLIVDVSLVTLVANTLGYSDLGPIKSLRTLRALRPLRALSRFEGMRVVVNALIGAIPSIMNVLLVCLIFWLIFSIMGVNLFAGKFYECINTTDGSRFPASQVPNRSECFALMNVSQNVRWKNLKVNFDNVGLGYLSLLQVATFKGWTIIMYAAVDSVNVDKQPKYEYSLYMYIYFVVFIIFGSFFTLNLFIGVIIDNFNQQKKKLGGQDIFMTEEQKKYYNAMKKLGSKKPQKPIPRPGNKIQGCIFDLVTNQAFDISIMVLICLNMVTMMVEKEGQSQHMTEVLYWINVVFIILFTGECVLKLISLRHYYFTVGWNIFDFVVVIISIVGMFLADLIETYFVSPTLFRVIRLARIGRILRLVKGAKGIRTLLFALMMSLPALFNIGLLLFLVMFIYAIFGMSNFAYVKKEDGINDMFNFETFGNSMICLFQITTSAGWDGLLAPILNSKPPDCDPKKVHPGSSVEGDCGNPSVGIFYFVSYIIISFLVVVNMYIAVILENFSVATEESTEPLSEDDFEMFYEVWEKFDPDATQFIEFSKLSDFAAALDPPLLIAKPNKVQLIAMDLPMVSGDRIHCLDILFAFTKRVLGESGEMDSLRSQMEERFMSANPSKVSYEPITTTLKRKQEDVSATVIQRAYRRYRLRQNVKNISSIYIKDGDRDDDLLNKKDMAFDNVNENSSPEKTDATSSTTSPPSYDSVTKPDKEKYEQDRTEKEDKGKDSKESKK
Target sequence in this assay (Q07699 whole entry partner, looked up): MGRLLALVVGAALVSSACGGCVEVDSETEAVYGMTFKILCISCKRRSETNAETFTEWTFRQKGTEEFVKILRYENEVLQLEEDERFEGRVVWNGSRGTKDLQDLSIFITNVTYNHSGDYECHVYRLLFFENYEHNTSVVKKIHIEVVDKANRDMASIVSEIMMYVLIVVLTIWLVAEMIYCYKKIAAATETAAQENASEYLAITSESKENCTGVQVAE

As usually defined, the IC50 is the concentration that inhibits the measured activity by half. For `CN(C)[C@H]1C[C@@H](c2cccc(C(F)(F)F)c2)CC[C@@H]1n1ccc2cc(S(=O)(=O)Nc3ccncn3)c(F)cc21` [Example 10, 1-((1S,2S,4S)-2-(Dimethylamino)-4-(3-(trifluoromethyl)phenyl)cyclohexyl)-6-fluoro-N-(pyrimidin-4-yl)-1H-indole-5-sulfonamide formate], the results for the IC50 in assay [1] and in assay [2] were 2.74 nM and 25.8 nM, respectively.

As for `CN(C)[C@H]1CN(c2cc(C(F)(F)F)ccn2)CC[C@@H]1Nc1cc(F)c(S(=O)(=O)Nc2ccncn2)cc1Cl` [Example 71, 5-Chloro-4-(((3S,4S)-3-(dimethylamino)-1-(4-(trifluoromethyl)pyridin-2-yl)piperidin-4-yl)amino)-2-fluoro-N-(pyrimidin-4-yl)benzenesulfonamide formate], the IC50 in assay [1] stood at 7.04 nM; in assay [2], 169 nM.

As to `CN(C)[C@H]1C[C@@H](c2cccc(C(F)(F)F)c2)CC[C@@H]1Oc1ccc(S(=O)(=O)Nc2ccncn2)c(F)c1` [Example 57, 4-(((1S,2S,4S)-2-(Dimethylamino)-4-(3-(trifluoromethyl)phenyl)cyclohexyl)oxy)-2-fluoro-N-(pyrimidin-4-yl)benzenesulfonamide formate], the IC50 was determined as 2.59 nM in assay [1] and 35.3 nM in assay [2].

For the compound `CN(C)[C@H]1C[C@@H](c2cccc(C(F)(F)F)c2)CC[C@@H]1N1CCOc2cc(S(=O)(=O)Nc3ccncn3)c(F)cc21` [Example 2, 4-((1S,2S,4S)-2-(Dimethylamino)-4-(3-(trifluoromethyl)phenyl)cyclohexyl)-6-fluoro-N-(pyrimidin-4-yl)-3,4-dihydro-2H-benzo[b][1,4]oxazine-7-sulfonamide formate], the IC50 in assay [1] came out at 1.01 nM; in assay [2], 0.686 nM.

As for `CN(C)[C@H]1C[C@@H](c2ccnc(C(F)(F)F)c2)CC[C@@H]1Oc1cc(F)c(S(=O)(=O)Nc2ccncn2)cc1Cl` [Example 76, 5-chloro-4-(((1S,2S,4S)-2-(dimethylamino)-4-(2-(trifluoromethyl)pyridin-4-yl)cyclohexyl)oxy)-2-fluoro-N-(pyrimidin-4-yl)benzenesulfonamide formate], the IC50 was 8.61 nM in assay [1] and 78.8 nM in assay [2].

Turning to `CN1CC(N[C@H]2C[C@@H](c3cccc(C(F)(F)F)c3)CC[C@@H]2Oc2cc(F)c(S(=O)(=O)Nc3ccncn3)cc2Cl)C1` [Example 87, 5-chloro-2-fluoro-4-(((1S,2S,4S)-2-((1-methylazetidin-3-yl)amino)-4-(3-(trifluoromethyl)phenyl)-cyclohexyl)oxy)-N-(pyrimidin-4-yl)benzenesulfonamide], the results for the IC50 in assay [1] and in assay [2] were 1.18 nM and 7.94 nM, respectively.

Turning to `CN(CCO)[C@H]1C[C@@H](c2cccc(C(F)(F)F)c2)CC[C@@H]1Oc1cc(F)c(S(=O)(=O)Nc2ccncn2)cc1Cl` [Example 66, 5-chloro-2-fluoro-4-(((1S,2S,4S)-2-((2-hydroxyethyl)(methyl)amino)-4-(3-(trifluoromethyl)-phenyl)cyclohexyl)oxy)-N-(pyrimidin-4-yl)benzenesulfonamide formate], the values for the IC50 in assay [1] and in assay [2] were 0.732 nM and 2.59 nM, respectively.

Regarding “4-(((1S,2S,4S)-2-(azetidin-3-yl(methyl)amino)-4-(3-(trifluoromethyl)phenyl)cyclohexyl)oxy)-5-chloro-2-fluoro-N-(pyrimidin-4-yl)benzenesulfonamide [Example 80]”, the IC50 in assay [1] came to 0.317 nM; in assay [2], 0.39 nM.

On to `CN(C)[C@H]1C[C@@H](c2cccc(C(F)(F)F)c2)CC[C@@H]1Nc1c(F)cc(S(=O)(=O)Nc2ccncn2)cc1F` [Example 88, 4-(((1S,2S,4S)-2-(Dimethylamino)-4-(3-(trifluoromethyl)phenyl)cyclohexyl)amino)-3,5-difluoro-N-(pyrimidin-4-yl)benzenesulfonamide], for which the figures for the IC50 in assay [1] and in assay [2] were 17 nM and 170 nM, respectively.

The values above are taken from patent US11028075B2, “Therapeutic compounds and methods of use thereof” (GENENTECH, INC., priority 2018, dated 2021).
